Test results published in the Kinase Knowledgebase extract (Sharma et al. 2016).

Target: CDK2 (human) (UniProt P24941)
Experiment: Enzyme Assay

Structure (SMILES)	Ki
Nc1ncc2c(Nc3n[nH]c4ccccc34)nc(-c3ccc4[nH][nH]c(=O)c4c3C(F)(F)F)nc2n1	< 1000 nM
O=c1[nH][nH]c2cc(Nc3nc(Nc4cc(C5CC5)[nH]n4)cc(Oc4ccccc4)n3)ccc12	< 1000 nM
Cc1cc(Nc2cc(COc3ccc4c(=O)[nH][nH]c4c3)nc3c2CCCCC3)n[nH]1	< 1000 nM
Cc1c(Nc2n[nH]c3ccccc23)nc(-c2cc3c(=O)[nH][nH]c3cc2Cl)nc1N1CCOCC1	< 1000 nM
O=c1[nH][nH]c2cc(CCCCNc3ccccn3)ccc12	< 1000 nM
COCCNc1cc(Nc2cc(C)[nH]n2)nc(SCc2ccc3c(=O)[nH][nH]c3c2)n1	< 1000 nM
O=c1[nH][nH]c2cc(Nc3ccc([N+](=O)[O-])c(Nc4cc(C5CC5)[nH]n4)n3)ccc12	< 1000 nM
O=c1[nH][nH]c2ccc(-c3nc(Nc4n[nH]c(C5CC5)n4)c4ccncc4n3)c(Cl)c12	< 1000 nM
O=c1[nH][nH]c2cc(Nc3nc(Nc4cc(C5CC5)[nH]n4)nc(-c4ccccc4)n3)ccc12	< 1000 nM
O=c1[nH][nH]c2cc(OCC3CCCC3Nc3nccnn3)ccc12 (centres undefined)	< 1000 nM
CS(=O)(=O)N1CCCCC1c1cc(Nc2n[nH]c3ccccc23)nc(-c2ccc3[nH][nH]c(=O)c3c2C(F)(F)F)n1 (centres undefined)	< 1000 nM
Cn1cnc(NC2CCC(Nc3ccc4c(=O)[nH][nH]c4c3)C2)c1 (centres undefined)	< 1000 nM
Cc1cc(Nc2cc(-c3ccccc3C)nc(Oc3ccc4c(=O)[nH][nH]c4c3)n2)n[nH]1	< 1000 nM
O=c1[nH][nH]c2cc(CCCONc3cc(C4CC4)[nH]n3)ccc12	< 1000 nM
O=c1[nH][nH]c2cc(Oc3cc(Nc4cc(C5CC5)[nH]n4)ccn3)ccc12	< 1000 nM
O=c1[nH][nH]c2cc(CC3COCC(Nc4cc(C5CC5)[nH]n4)C3)ccc12 (centres undefined)	< 1000 nM
Cc1cc(Nc2cc(C)[nH]n2)nc(C2(c3ccc4c(=O)[nH][nH]c4c3)CC2)n1	< 1000 nM
CC(C)c1cc2[nH][nH]c(=O)c2cc1-c1nc(Nc2n[nH]c3ccccc23)c2ccccc2n1	< 1000 nM
O=c1[nH][nH]c2cc(COC3CCCC3Nc3cc(C4CC4)[nH]n3)ccc12 (centres undefined)	< 1000 nM
C#Cc1c(-c2nc(Nc3n[nH]c4ccc(F)cc34)c3ccccc3n2)ccc2[nH][nH]c(=O)c12	< 1000 nM
O=c1[nH][nH]c2cc(NCC3CCCC3Nc3cc(C4CC4)[nH]n3)ccc12 (centres undefined)	< 1000 nM
Cc1nc(-c2ccc3[nH][nH]c(=O)c3c2C(F)(F)F)nc(Nc2n[nH]c(C(C)C)n2)c1C	< 1000 nM
O=c1[nH][nH]c2ccc(-c3nc4c(c(Nc5n[nH]c6ccccc56)n3)CCCC4)c(C(F)(F)F)c12	< 1000 nM
O=c1[nH][nH]c2cc([C@@H]3C[C@H]3c3nc(Nc4n[nH]c5c(F)cccc45)c4ccccc4n3)ccc12	< 1000 nM

Structure (SMILES)	Ki
O=c1[nH][nH]c2cc(NCCCNc3ccccn3)ccc12	< 1000 nM
CN(C)c1nc(Nc2ccc3c(=O)[nH][nH]c3c2)nc(Nc2cc(C3CC3)[nH]n2)n1	< 1000 nM
Cn1cnc(NC2CCC(c3ccc4[nH][nH]c(=O)c4c3)C2)c1 (centres undefined)	< 1000 nM
Cc1cc(Nc2nc(-c3ccc4[nH][nH]c(=O)c4c3Cl)nc(C)c2C)n[nH]1	< 1000 nM
Cn1cnc(NC(=O)CC(=O)Oc2ccc3c(=O)[nH][nH]c3c2)c1	< 1000 nM
O=c1[nH][nH]c2cc(Nc3cc(Nc4cc(C5CC5)[nH]n4)ncn3)ccc12	< 1000 nM
CC(=O)Nc1ccc(Sc2cc(Nc3cc(C)[nH]n3)nc(-c3ccc4[nH][nH]c(=O)c4c3)n2)cc1	< 1000 nM
O=c1[nH][nH]c2cc(Nc3nc(Nc4cc(-c5ccco5)[nH]n4)c4ccccc4n3)ccc12	< 1000 nM
CNC(=O)c1cc(Nc2cc(C)[nH]n2)nc(Sc2ccc3c(=O)[nH][nH]c3c2)n1	< 1000 nM
O=c1[nH][nH]c2ccc(-c3nc4c(c(Nc5n[nH]c6c(F)cccc56)n3)CCCCCC4)c(C(F)(F)F)c12	< 1000 nM
O=c1[nH][nH]c2cc(Nc3cc(Nc4n[nH]c5ccccc45)c4ccccc4n3)ccc12	< 1000 nM
O=c1[nH][nH]c2cc(C(F)(F)F)c(-c3cc(Nc4n[nH]c5ccccc45)cc(C4CCCCC4)n3)cc12	< 1000 nM
Cc1cc(Nc2nc(-c3ccc4[nH][nH]c(=O)c4c3)cc3ccccc23)n[nH]1	< 1000 nM
Cc1cnc(NCCC(=O)Cc2ccc3c(=O)[nH][nH]c3c2)s1	< 1000 nM
O=c1[nH][nH]c2ccc(-c3nnc(C4CCCCC4)c(Nc4n[nH]c5ccc(F)cc45)n3)c(C(F)(F)F)c12	< 1000 nM
O=c1[nH][nH]c2cc(OC3COCC(Nc4cc(C5CC5)[nH]n4)C3)ccc12 (centres undefined)	< 1000 nM
Cc1cnc(NCCCOc2ccc3c(=O)[nH][nH]c3c2)s1	< 1000 nM
O=c1[nH][nH]c2ccc(C3CCC(Nc4cc(C5CC5)[nH]n4)C3)cc12 (centres undefined)	< 1000 nM
Cc1cc(Nc2nc(COc3ccc4c(=O)[nH][nH]c4c3)nc3c2CN(Cc2ccccc2)CC3)n[nH]1	< 1000 nM
Cc1cc(Nc2cc(-c3ccccc3)[nH]n2)nc(-c2ccc3[nH][nH]c(=O)c3c2)n1	< 1000 nM
O=c1[nH][nH]c2cc(Oc3cc(Nc4cc(C5CC5)[nH]n4)c4ccccc4n3)ccc12	< 1000 nM
O=c1[nH][nH]c2cc(Nc3nc(Nc4cc(C5CC5)[nH]n4)c4ccccc4n3)ccc12	< 1000 nM
Cn1cnc(NC2COCC(SCc3ccc4c(=O)[nH][nH]c4c3)C2)c1 (centres undefined)	< 1000 nM
Cn1cnc(NC2CCCC(Oc3ccc4c(=O)[nH][nH]c4c3)C2)c1 (centres undefined)	< 1000 nM

Structure (SMILES)	Ki
Cc1cc(Nc2cc(N3CCOCC3)nc(OCc3ccc4c(=O)[nH][nH]c4c3)n2)n[nH]1	< 1000 nM
Cc1cnc(NC2CCC(Nc3ccc4c(=O)[nH][nH]c4c3)C2)s1 (centres undefined)	< 1000 nM
Cc1cnc(NC2CCCC(Sc3ccc4c(=O)[nH][nH]c4c3)C2)s1 (centres undefined)	< 1000 nM
Cc1cc(Nc2ccnc(Oc3ccc4c(=O)[nH][nH]c4c3)c2)n[nH]1	< 1000 nM
CCc1cccc2c(Nc3cc(C)[nH]n3)nc(-c3ccc4[nH][nH]c(=O)c4c3OC(F)(F)F)nc12	< 1000 nM
COc1cc(-c2cc(Nc3cc(C)[nH]n3)nc(Nc3ccc4c(=O)[nH][nH]c4c3)n2)cc(OC)c1OC	< 1000 nM
O=c1[nH][nH]c2cc(Nc3nc(Nc4cc(-c5ccccc5)[nH]n4)cc(-c4cccc([N+](=O)[O-])c4)n3)ccc12	< 1000 nM
Cc1cc(Nc2nc(-c3cc4c(=O)[nH][nH]c4cc3-c3ccccc3)nc3ccccc23)n[nH]1	< 1000 nM
Cc1cnc(NC(=O)CCNc2ccc3c(=O)[nH][nH]c3c2)s1	< 1000 nM
O=c1[nH][nH]c2cc(Oc3cccc(Nc4n[nH]c5ccccc45)n3)ccc12	< 1000 nM
Cn1cnc(NC2CCCC(Nc3ccc4c(=O)[nH][nH]c4c3)C2)c1 (centres undefined)	< 1000 nM
O=c1[nH][nH]c2cc(COCc3cc4ccccc4c(Nc4cc(C5CC5)[nH]n4)n3)ccc12	< 1000 nM
COc1c(-c2nc(Nc3cc(C)[nH]n3)c3ccccc3n2)ccc2[nH][nH]c(=O)c12	< 1000 nM
Cc1cc(Nc2nc(Cc3ccc4c(=O)[nH][nH]c4c3)nc3c2CCCC3)n[nH]1	< 1000 nM
CNc1cnc(-c2ccc3[nH][nH]c(=O)c3c2C(F)(F)F)nc1Nc1n[nH]c2ccccc12	< 1000 nM
CC(=O)N1CCC(c2cc(Nc3n[nH]c4ccccc34)nc(-c3ccc4[nH][nH]c(=O)c4c3C(F)(F)F)n2)CC1	< 1000 nM
O=C(CCNc1ccccn1)Oc1ccc2c(=O)[nH][nH]c2c1	< 1000 nM
O=c1[nH][nH]c2cc(C(F)(F)F)c(-c3cc(-c4ccccc4)cc(Nc4n[nH]c5ccccc45)n3)cc12	< 1000 nM
O=c1[nH][nH]c2ccc(-c3nnc(C4CCNCC4)c(Nc4n[nH]c5ccccc45)n3)c(C(F)(F)F)c12	< 1000 nM
O=c1[nH][nH]c2cc(NOCCNc3ccccn3)ccc12	< 1000 nM
O=c1[nH][nH]c2ccc(C3CCCC(Nc4nccnn4)C3)cc12 (centres undefined)	< 1000 nM
Cc1cc(Nc2nc(CSc3ccc4[nH][nH]c(=O)c4c3)nc3ccccc23)n[nH]1	< 1000 nM
Cc1cnc(NCCC(Cc2ccccc2)Oc2ccc3c(=O)[nH][nH]c3c2)s1 (centres undefined)	< 1000 nM
O=c1[nH][nH]c2ccc(-c3nc(Nc4cc(C5CC5)[nH]n4)nc(-c4ccccc4)n3)cc12	< 1000 nM

Structure (SMILES)	Ki
Cc1cc(Nc2nc(Sc3ccc4c(=O)[nH][nH]c4c3)cc3ccccc23)n[nH]1	< 1000 nM
Cc1cnc(NC(CCSc2ccc3c(=O)[nH][nH]c3c2)c2ccccc2)s1 (centres undefined)	< 1000 nM
O=c1[nH][nH]c2cc(SCCCNc3nccnn3)ccc12	< 1000 nM
O=c1[nH][nH]c2cc(Cl)c(-c3cc4c(c(Nc5n[nH]c6ccccc56)n3)CCCC4)cc12	< 1000 nM
O=c1[nH][nH]c2cc(Nc3cc4ccccc4c(Nc4n[nH]c5ccccc45)n3)ccc12	< 1000 nM
O=c1[nH][nH]c2ccc(-c3nc(Nc4n[nH]c5cc(=O)n(-c6ccccc6)nc45)c4ccccc4n3)c(C(F)(F)F)c12	< 1000 nM
Cc1cc(Nc2nc(Nc3ccc4c(=O)[nH][nH]c4c3)nc3c2CCNC3)n[nH]1	< 1000 nM
CC(=O)Nc1cccc(-c2cc(Nc3cc(C)[nH]n3)nc(Sc3ccc4c(=O)[nH][nH]c4c3)n2)c1	< 1000 nM
Cc1cnc(NCCONc2ccc3c(=O)[nH][nH]c3c2)s1	< 1000 nM
Cc1cc(Nc2cccc(Oc3ccc4c(=O)[nH][nH]c4c3)n2)n[nH]1	< 1000 nM
O=c1[nH][nH]c2cc(Sc3nc(Nc4cc(C5CC5)[nH]n4)cc(-c4ccccc4)n3)ccc12	< 1000 nM
O=c1[nH][nH]c2cc(Nc3ncnc(Nc4cc(C5CC5)[nH]n4)n3)ccc12	< 1000 nM
NCCOc1cccc2c(Nc3n[nH]c4ccccc34)nc(-c3ccc4[nH][nH]c(=O)c4c3C(F)(F)F)nc12	< 1000 nM
O=c1[nH][nH]c2cc(C(F)(F)F)c(-c3nc4c(c(Nc5n[nH]c6ccc(F)cc56)n3)OCCCC4)cc12	< 1000 nM
Cc1cc(Nc2nc(Sc3ccc4c(=O)[nH][nH]c4c3)nc3c(OCCCN(C)C)cccc23)n[nH]1	< 1000 nM
Cc1cc(Nc2cc(C)[nH]n2)nc(COc2ccc3[nH][nH]c(=O)c3c2)n1	< 1000 nM
O=c1[nH][nH]c2cc(Nc3nc(Nc4cc(C5CC5)[nH]n4)c4cc(-c5ccccc5Cl)ccc4n3)ccc12	< 1000 nM
COC[C@H]1CCN(C(=O)c2cc(Nc3nc(-c4ccc5[nH][nH]c(=O)c5c4)nc4ccccc34)n[nH]2)C1	< 1000 nM
O=c1[nH][nH]c2cc(NC(CCNc3ccccn3)Cc3ccccc3)ccc12 (centres undefined)	< 1000 nM
Cc1cc(Nc2cc(-c3cccc([N+](=O)[O-])c3)nc(Nc3ccc4c(=O)[nH][nH]c4c3)n2)n[nH]1	< 1000 nM
CCc1cc(Nc2cc(C)[nH]n2)nc(Nc2ccc3c(=O)[nH][nH]c3c2)n1	< 1000 nM
O=c1[nH][nH]c2cc(OCC3CCCC(Nc4nccnn4)C3)ccc12 (centres undefined)	< 1000 nM
